Test results: patent US11274332B2, “Methods of administering 3,4-diaminopyridine” (SERB SA, priority 2011, dated 2022)
Several values for one entry are separate records, joined by “and”; a condition that tells them apart may be missing. Equal values may be shown once.

Test: Food-effect crossover study, adverse events after single 20 mg amifampridine phosphate in healthy subjects (Examples 10, 11)
Format: in vivo
Method: This was a randomized, open-label, 2-treatment, 2-period crossover study with 44 completed subjects to assess the safety, tolerability, and the effect of food on the relative bioavailability of a single dose of amifampridine phosphate.
Safety was evaluated for all subjects who take at least one dose of 3,4-DAP. Safety was evaluated by recording the incidence of adverse events (AEs), physical examination, vital signs, concomitant medications, clinical laboratory assessments, and 12-lead electrocardiogram (ECG).
Analysis for the following safety parameters was carried out on the Safety Population: AEs which included all AEs, AEs by severity, drug-related AEs, deaths, SAEs, AEs leading to study discontinuation, and most frequent AEs, standard clinical laboratory tests, vital signs, ECG measurements, routine physical examinations, and prior and concomitant medications. The cut-off for frequency of AEs reported was determined based on the data. No formal statistical testing was performed for the safety analyses; only descriptive statistics were provided. Appropriate descriptive statistics for the safety data were determined using SAS Version 9.2.
AEs were coded according to the Medical Dictionary for Regulatory Activities (MedDRA; Version 13.0). […] The occurrence of AEs was assessed continuously from the time the subject signed the VID and consent. The reporting period for non-serious AEs was from the first dose to the final study visit. The investigator determined the severity of each event and the relationship of an AE to the IP and recorded it on the source documents and AE CRF. The nature, time of onset, duration, severity, and relationship to study drug was documented, including documentation of investigator assessment and review. All events were assessed to determine if the AE was serious.
The Investigator determined the severity of each event and the event was recorded on the source documents and AE CRF. A coding of “mild” meant there was no limitation of usual activities, “moderate” meant there was some limitation of usual activities, “severe” meant there was an inability to carry out usual activities.
The reporting period for AEs that met the criteria of an SAE began from the time of signing the VID and consent form through follow-up or early termination. […] Clinical Laboratory Assessments

## Nc1ccncc1N.O=P(O)(O)O [amifampridine phosphate, 3,4-diaminopyridine phosphate]
Fed N=46
  Diarrhoea, drug-related AE: % of subjects: (0%) [0]
  Diarrhoea, drug-related AE: events: (0%) [0]
  Diarrhoea, drug-related AE: subjects: 0
  Discontinued due to adverse events: % of subjects: 2%
  Discontinued due to adverse events: events: 1
  Discontinued due to adverse events: subjects: 1
  Dizziness, drug-related AE: % of subjects: 4%
  Dizziness, drug-related AE: events: 2
  Dizziness, drug-related AE: subjects: 2
  Dysgeusia, drug-related AE: % of subjects: 4%
  Dysgeusia, drug-related AE: events: 2
  Dysgeusia, drug-related AE: subjects: 2
  Fatigue, drug-related AE: % of subjects: 7%
  Fatigue, drug-related AE: events: 3
  Fatigue, drug-related AE: subjects: 3
  Feeling Hot, drug-related AE: % of subjects: (0%) [0]
  Feeling Hot, drug-related AE: events: (0%) [0]
  Feeling Hot, drug-related AE: subjects: 0
  Flushing, drug-related AE: % of subjects: 2%
  Flushing, drug-related AE: events: 1
  Flushing, drug-related AE: subjects: 1
  Gastrointestinal Disorders Total, drug-related AE: % of subjects: 4%
  Gastrointestinal Disorders Total, drug-related AE: events: 2
  Gastrointestinal Disorders Total, drug-related AE: subjects: 2
  General Disorders and Administration Site Conditions Total, drug-related AE: % of subjects: 7%
  General Disorders and Administration Site Conditions Total, drug-related AE: events: 3
  General Disorders and Administration Site Conditions Total, drug-related AE: subjects: 3
  Headache, drug-related AE: % of subjects: 2%
  Headache, drug-related AE: events: 1
  Headache, drug-related AE: subjects: 1
  Hypoaesthesia Facial, drug-related AE: % of subjects: (0%) [0]
  Hypoaesthesia Facial, drug-related AE: events: (0%) [0]
  Hypoaesthesia Facial, drug-related AE: subjects: 0
  Hypoaesthesia Oral, drug-related AE: % of subjects: 7%
  Hypoaesthesia Oral, drug-related AE: events: 3
  Hypoaesthesia Oral, drug-related AE: subjects: 3
  Hypoaesthesia, drug-related AE: % of subjects: (0%) [0]
  Hypoaesthesia, drug-related AE: events: (0%) [0]
  Hypoaesthesia, drug-related AE: subjects: 0
  Nausea, drug-related AE: % of subjects: 2%
  Nausea, drug-related AE: events: 1
  Nausea, drug-related AE: subjects: 1
  Nervous System Disorders Total, drug-related AE: % of subjects: 37%
  Nervous System Disorders Total, drug-related AE: events: 31
  Nervous System Disorders Total, drug-related AE: subjects: 17
  Paraesthesia Oral, drug-related AE: % of subjects: 28%
  Paraesthesia Oral, drug-related AE: events: 15
  Paraesthesia Oral, drug-related AE: subjects: 13
  Paraesthesia, drug-related AE: % of subjects: 15%
  Paraesthesia, drug-related AE: events: 8
  Paraesthesia, drug-related AE: subjects: 7
  Possibly or probably related AEs, Mild: % of subjects: 46%
  Possibly or probably related AEs, Mild: events: 37
  Possibly or probably related AEs, Mild: subjects: 21
  Possibly or probably related AEs, Moderate: % of subjects: (0%) [0]
  Possibly or probably related AEs, Moderate: events: (0%) [0]
  Possibly or probably related AEs, Moderate: subjects: 0
  Possibly or probably related AEs, Severe: % of subjects: (0%) [0]
  Possibly or probably related AEs, Severe: events: (0%) [0]
  Possibly or probably related AEs, Severe: subjects: 0
  Possibly or probably related AEs, Total: % of subjects: 46%
  Possibly or probably related AEs, Total: events: 37
  Possibly or probably related AEs, Total: subjects: 21
  Serious adverse events: % of subjects: (0%) [0]
  Serious adverse events: events: (0%) [0]
  Serious adverse events: subjects: 0
  Skin and Subcutaneous Tissue Disorders Total, drug-related AE: % of subjects: (0%) [0]
  Skin and Subcutaneous Tissue Disorders Total, drug-related AE: events: (0%) [0]
  Skin and Subcutaneous Tissue Disorders Total, drug-related AE: subjects: 0
  Vascular Disorders Total, drug-related AE: % of subjects: 2%
  Vascular Disorders Total, drug-related AE: events: 1
  Vascular Disorders Total, drug-related AE: subjects: 1
Fed N=46, phosphate
  All treatment emergent AEs, Total: subjects: 24 and 23
Female N=16
  Abdominal Pain Upper, drug-related AE: % of subjects: 6%
  Abdominal Pain Upper, drug-related AE: events: 1
  Abdominal Pain Upper, drug-related AE: subjects: 1
  Abdominal Pain, drug-related AE: % of subjects: 13%
  Abdominal Pain, drug-related AE: events: 2
  Abdominal Pain, drug-related AE: subjects: 2
  Abdominal Tenderness, drug-related AE: % of subjects: 6%
  Abdominal Tenderness, drug-related AE: events: 1
  Abdominal Tenderness, drug-related AE: subjects: 1
  Acne, drug-related AE: % of subjects: (0%) [0]
  Acne, drug-related AE: events: (0%) [0]
  Acne, drug-related AE: subjects: 0
  All treatment emergent AEs, Mild: % of subjects: 75%
  All treatment emergent AEs, Mild: events: 41
  All treatment emergent AEs, Mild: subjects: 12
  All treatment emergent AEs, Moderate: % of subjects: 13%
  All treatment emergent AEs, Moderate: events: 2
  All treatment emergent AEs, Moderate: subjects: 2
  All treatment emergent AEs, Severe: % of subjects: (0%) [0]
  All treatment emergent AEs, Severe: events: (0%) [0]
  All treatment emergent AEs, Severe: subjects: 0
  All treatment emergent AEs, Total: events: 43
  All treatment emergent AEs, Total: subjects: 12
  Constipation, drug-related AE: % of subjects: 6%
  Constipation, drug-related AE: events: 1
  Constipation, drug-related AE: subjects: 1
  Diarrhoea, drug-related AE: % of subjects: 6%
  Diarrhoea, drug-related AE: events: 1
  Diarrhoea, drug-related AE: subjects: 1
  Discontinued due to adverse events: % of subjects: (0%) [0]
  Discontinued due to adverse events: events: (0%) [0]
  Discontinued due to adverse events: subjects: 0
  Dizziness, drug-related AE: % of subjects: 25%
  Dizziness, drug-related AE: events: 5
  Dizziness, drug-related AE: subjects: 4
  Dysgeusia, drug-related AE: % of subjects: (0%) [0]
  Dysgeusia, drug-related AE: events: (0%) [0]
  Dysgeusia, drug-related AE: subjects: 0
  Fatigue, drug-related AE: % of subjects: 13%
  Fatigue, drug-related AE: events: 2
  Fatigue, drug-related AE: subjects: 2
  Feeling Hot, drug-related AE: % of subjects: (0%) [0]
  Feeling Hot, drug-related AE: events: (0%) [0]
  Feeling Hot, drug-related AE: subjects: 0
  Flushing, drug-related AE: % of subjects: 6%
  Flushing, drug-related AE: events: 1
  Flushing, drug-related AE: subjects: 1
  Gastrointestinal Disorders Total, drug-related AE: % of subjects: 31%
  Gastrointestinal Disorders Total, drug-related AE: events: 8
  Gastrointestinal Disorders Total, drug-related AE: subjects: 5
  General Disorders and Administration Site Conditions Total, drug-related AE: % of subjects: 13%
